In one test the target is T1, SNAT1 (Homo sapiens, UniProt Q9H2H9).
T1 construct: SNAT1 remained active as indicated by the Na^+-dependence of alanine uptake; endogenous in cells; host or cells: HCC1806 clone D126 (ASCT2ko, SNAT2ko), amino acid depleted for 24 h
T1 sequence (Q9H2H9 1-487): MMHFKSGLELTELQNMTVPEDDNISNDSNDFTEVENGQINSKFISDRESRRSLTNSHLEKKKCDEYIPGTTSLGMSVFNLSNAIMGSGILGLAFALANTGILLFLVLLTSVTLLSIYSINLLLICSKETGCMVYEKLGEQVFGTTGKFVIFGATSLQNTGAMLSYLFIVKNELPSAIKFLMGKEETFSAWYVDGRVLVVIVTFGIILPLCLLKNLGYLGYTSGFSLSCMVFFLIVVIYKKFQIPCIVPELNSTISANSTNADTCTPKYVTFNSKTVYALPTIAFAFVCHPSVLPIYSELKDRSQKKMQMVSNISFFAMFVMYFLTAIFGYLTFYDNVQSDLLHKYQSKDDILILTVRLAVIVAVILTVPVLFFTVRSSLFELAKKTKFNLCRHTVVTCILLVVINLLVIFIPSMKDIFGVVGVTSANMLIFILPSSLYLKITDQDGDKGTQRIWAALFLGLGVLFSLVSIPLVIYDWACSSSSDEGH
Kind of test: Alanine uptake in HCC1806 D126 (ASCT2ko, SNAT2ko) cells. It counts as cell-based. The settings on record: for Alanine uptake (nmol / mg protein x 6 min): Figure 4B, replicates 1-3; for inhibition of alanine uptake: HCC1806 D126, Figure 4B, betaine and MeAIB 10 mM. Here is the method:
(§1) To delete the SNAT2 (SLC38A2) gene in modified HCC1806 cells (clone C10 nullizygous for ASCT2 ([Broer et al., 2019])), the GeneArt CRISPR Nuclease Vector with OFP Reporter Kit (Invitrogen; A21174) was employed and complementary 19–20 bp long single-stranded oligonucleotides with overhangs were designed to produce a guide RNA (gRNA) for the Cas9 nuclease that would target exon 7 of the SNAT2 gene. Colonies were analysed by sequencing using the U6 primer included in the GeneArt CRISPR Nuclease Vector with OFP Reporter kit. Plasmids that contained the correct CRISPR nuclease construct were then used to transfect HCC1806 cells with Lipofectamine 2000 (Invitrogen). Prior to transfection, medium was replaced with 2 ml of fresh DMEM/F-12 (supplemented with 10% heat-inactivated FBS and 2 mM glutamine). Plasmid DNA (4 µg) and 10 µL of Lipofectamine 2000 were incubated separately for 5 min at room temperature in 500 µl of Opti-MEM (Invitrogen) before being combined and incubated for a further 30 min at room temperature. The DNA-Lipofectamine complex was then added to the cells in a dropwise manner and allowed to be absorbed over 6 h at 37°C, after which the medium was renewed with fresh DMEM/F-12. Cells were checked for red fluorescence using an EVOS FL cell imaging system (Thermo Fisher Scientific) 48–72 h post transfection. Subsequently, cells were detached using 0.25% Trypsin EDTA. After harvesting and washing thrice with PBS (pH 7.4), cells were resuspended in PBS (pH 7.4) supplemented with 5 mM glucose and 1% dialysed and heat inactivated FBS and passed through a 100 μm cell strainer. The cell filtrate was then pelleted once more and resuspended in the same buffer. Cells were sorted using an ARIA II FACS machine and individually dispensed into the wells of a 96-well plate. Nullizygous clones were identified using a series of assays including the FLIPR membrane potential assay, western blotting and sequencing.
(§2) Functional characterisation of plasma membrane transporters in human cancer cells was determined at 37°C using an array of radiolabelled amino acid substrates. Modified Hanks HEPES-buffered salts solution (mHBSS; 137 mM NaCl; 5.4 mM KCl; 2.7 mM K2HPO4; 1 mM CaCl2; 0.5 mM MgCl2; 0.44 mM KH2PO4; 0.4 mM MgSO4; 5 mM D-glucose; 5 mM HEPES; pH 7.4) was used to wash and incubate cells where sodium dependent transport was measured, while N-methyl-D-glucamine (NMDG) and potassium salts substituted sodium in NMDG mHBSS to measure sodium independent uptake. For the assay, cells were seeded in 35 mm dishes and, once confluent, were washed thrice with warm mHBSS solution and incubated with mHBSS containing an 100 µM amino acid at a final specific activity of ≥2000 cpm/nmol (U-[^14C]amino acids were from PerkinElmer). After 6 min, cells were washed thrice with ice-cold mHBSS, lysed with 500 µl of 0.1 M HCl, detached with a cell scraper and triturated. A 400 µl aliquot was used for scintillation counting, while the remainder was saved for protein mass quantification by Bradford assay. Transport rates were normalised to the protein content of the culture dish.

Another test relates to HCC1806 cells. Kind of test: [14C]alanine uptake in non-depleted HCC1806 cells. It is filed as cell-based, human. The note with it: amino acid replete HCC1806 cells. Here is the method:
as §2

The subject of another test is SNAT1 and SNAT2. Kind of test: FMP assay in HCC1806 clones C10 (ASCT2ko) and D126 (ASCT2ko, SNAT2ko). It counts as cell-based, human. Here is the method: as §1
The FLIPR Membrane Potential Blue Explorer Kit (Molecular Devices) was used to characterise inhibitors and to optimise a high-throughput compound screen. Cells were seeded at approximately 60,000 cells/well on a 96-well plate and allowed to attach and grow overnight in a cell incubator. The next day, the cells were washed once with mHBSS and incubated in a starvation medium (composed of mHBSS with 1% dialysed heat-inactivated FBS, 23 mM NaHCO3, 10 U/ml penicillin and 10 μg/ml streptomycin) for 24 h. Cells were then washed once with mHBSS and incubated with 50 µl of the mHBSS-resuspended FMP assay dye and 50 µl of mHBSS (with or without inhibitors) and incubated at room temperature for 30 min. The plate was then placed in an EnSpire Multimode plate reader (PerkinElmer) and four sequential measurements of fluorescence were recorded as a baseline reference. Immediately after the baseline measurements were taken, 25 µl of 5 mM glutamine dissolved in mHBSS was injected into each well and the plate was shaken orbitally for 5 s before a series of consecutive fluorescence measurements were taken. The excitation wavelength was set to 530 nm and the emission was detected at 565 nm. The Δ fluorescent signal reported in the figures was taken 30 s after substrate addition. After the assay was complete, the liquid content of the plate was carefully removed, and the cell monolayer inspected to ensure it remained intact throughout the course of the assay.

Molecules are shown by their SMILES. Values joined by “and” are separate entries in the source; they are usually repeats but may differ in a detail not shown here. Equal entries are not always repeated.

Consider `C[N+](C)(C)CC(=O)O` [Betaine, betaine], for which, on SNAT1 (10mM), the “Alanine uptake (nmol / mg protein x 6 min)” value is 27.8319 nmol / mg protein x 6 min and 27.8658 nmol / mg protein x 6 min and 25.4928 nmol / mg protein x 6 min. The “inhibition of alanine uptake” value at SNAT1 is listed as “not inhibited”. In the test with HCC1806 cells, the “inhibition of [14C]alanine uptake” value is on record as “about 10%”.
On to `Cc1ccc(S(=O)(=O)N(C)c2ccsc2C(=O)NCc2ccccc2C(F)(F)F)cc1` [Compound 57_E, 3-(N-methyl (4-methylphenyl)sulfonamido)-N-(2-trifluoromethylbenzyl)thiophene-2-carboxamide], for which, at SNAT1, the “discrimination between SNAT2 and SNAT1” value is given as “discriminated against the close transporter homologue SNAT1”; the “inhibition of alanine uptake” value is “did not inhibit alanine uptake”. The “Alanine uptake (nmol / mg protein x 6 min)” value at SNAT1 (screening compounds) is 28.3148 nmol / mg protein x 6 min and 26.5203 nmol / mg protein x 6 min and 27.3289 nmol / mg protein x 6 min. Also, the “inhibition of [14C]alanine uptake” value with HCC1806 cells is given as “about 10%”.
On to `N[C@@H](CCC(=O)NO)C(=O)O` [GHX, L-glutamic acid γ-monohydroxamate], for which the “block of glutamine (1 mM) FMP signal” value with SNAT1 and SNAT2 (C10 cells) was “fully blocked”. Besides, the FMP fluorescence in the test on SNAT1 and SNAT2 (C10 cells, time 0, replicates 1-10) was 22566 and 24924 and 25754 and 31415 and 31062 and 25958 and 24037 and 24199 and 31861 and 22458; in the test with SNAT1 and SNAT2 (C10 cells, time 30, replicates 1-10) it was 22979 and 25257 and 24877 and 31065 and 30653 and 25037 and 22964 and 23247 and 31019 and 21524; in the test with SNAT1 and SNAT2 (C10 cells, time 40, replicates 1-10), 22836 and 25183 and 25086 and 31077 and 30677 and 25349 and 23314 and 23279 and 31141 and 21715; in the test on SNAT1 and SNAT2 (C10 cells, time 50, replicates 1-10), 22729 and 25095 and 24771 and 30889 and 30642 and 25022 and 23105 and 23276 and 31320 and 21555; with SNAT1 and SNAT2 (C10 cells, time 60, replicates 1-10), 22771 and 25085 and 24871 and 30919 and 30705 and 25319 and 23018 and 23144 and 31224 and 21790; in the test with SNAT1 and SNAT2 (C10 cells, time 70, replicates 1-10), 22546 and 24933 and 24936 and 30890 and 30628 and 25268 and 22856 and 23122 and 31403 and 21489. Moreover, the FMP fluorescence in the test with SNAT1 and SNAT2 (C10 cells, time 80, replicates 1-10) is 22447 and 25159 and 24725 and 30733 and 30614 and 25267 and 22687 and 23011 and 31397 and 21490; in the test with SNAT1 and SNAT2 (C10 cells, time 90, replicates 1-10), 22259 and 25131 and 24741 and 30924 and 30357 and 25175 and 22779 and 23104 and 30871 and 21284; in the test on SNAT1 and SNAT2 (C10 cells, time -10, replicates 1-10), 23300 and 25374 and 26077 and 32072 and 31514 and 26200 and 24526 and 24442 and 32334 and 22554; in the test with SNAT1 and SNAT2 (C10 cells, time -20, replicates 1-10), 23913 and 26637 and 26782 and 32769 and 33018 and 26873 and 25394 and 25312 and 33318 and 23095.
`NC(=O)CC[C@H](N)C(=O)O` [Glutamine, glutamine]: in the test on SNAT1 and SNAT2 (MeAIB 10 mM, glutamine 1 mM), the “FMP signal in D126 cells (ASCT2ko, SNAT2ko) compared to C10” value was found to be 42%.

The values are drawn from paper PMC9532951, “Identification and characterization of a novel SNAT2 (SLC38A2) inhibitor reveals synergy with glucose transport inhibition in cancer cells” (Frontiers in Pharmacology, 2022).
